Data reported in patent US9051290B2, “Biaryl phosphodiesterase inhibitors” (LEO PHARMA A/S, priority 2010, dated 2015).
pIC50: −log10 of the molar value.

Each molecule was assayed against Human recombinant PDE4 (Genbank accession no NM—006203) (Homo sapiens, UniProt Q08499) (assay: PDE4 assay (SPA, cleavage of cAMP)). Conditions: 1 hour incubation, test compound up to 10 μM, cAMP 1×10^−5M, read-out: PDE4 IC50 range.
Assay type: biochemical
Protocol: Human recombinant PDE4 (Genbank accession no NM_006203) was incubated for 1 hour with the test compound at concentrations up to 10 μM, with cAMP (1×10^−5M), and with a low amount (0.021 MBq) of radioactively labelled cAMP. At the end of the incubation, the cleavage of the substrate was evaluated by the binding of the AMP product to SPA beads, which generate chemoluminescence when bound to the radioactive tracer. The AMP product inhibited the binding of the radioactive tracer to the beads, and the luminescent signal was competed.
The results were calculated as the molar concentrations resulting in 50% inhibition of the substrate cleavage compared to controls samples, and are expressed as a range of IC50 (M).
The compounds of the present invention were tested in the PDE4 assay.

Human recombinant PDE4 (Genbank accession no NM—006203), sequence (Q08499 1-673 isoform Q08499-2): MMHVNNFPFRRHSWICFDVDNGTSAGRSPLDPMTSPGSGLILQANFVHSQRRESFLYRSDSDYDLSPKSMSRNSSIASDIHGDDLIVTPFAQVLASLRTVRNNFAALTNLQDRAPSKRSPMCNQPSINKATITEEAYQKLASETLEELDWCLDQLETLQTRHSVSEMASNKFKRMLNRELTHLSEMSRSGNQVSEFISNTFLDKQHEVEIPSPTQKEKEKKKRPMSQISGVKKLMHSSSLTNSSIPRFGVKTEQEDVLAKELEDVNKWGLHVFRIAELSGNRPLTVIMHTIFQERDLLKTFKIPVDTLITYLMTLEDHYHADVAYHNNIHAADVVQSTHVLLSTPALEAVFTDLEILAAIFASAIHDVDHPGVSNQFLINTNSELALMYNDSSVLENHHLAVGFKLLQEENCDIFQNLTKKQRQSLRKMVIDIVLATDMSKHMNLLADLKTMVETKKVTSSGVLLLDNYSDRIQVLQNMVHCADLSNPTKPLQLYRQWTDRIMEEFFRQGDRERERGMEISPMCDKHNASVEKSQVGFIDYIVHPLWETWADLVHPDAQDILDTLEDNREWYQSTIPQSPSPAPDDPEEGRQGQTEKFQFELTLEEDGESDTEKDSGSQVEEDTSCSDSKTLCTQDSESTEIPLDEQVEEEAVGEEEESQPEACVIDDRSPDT

`COc1ccc(-c2ccc3c(c2)COC3=O)c(OCc2ccc(S(C)(=O)=O)cc2)c1OC` [Compound 142, 5-[2-(4-Methanesulfonyl-benzyloxy)-3,4-dimethoxy-phenyl]-3H-isobenzofuran-1-one] and `COc1ccc(-c2ccc3c(c2)COC3=O)c(OCc2cccc(S(C)(=O)=O)c2)c1OC` [Compound 143, 5-[2-(3-Methanesulfonyl-benzyloxy)-3,4-dimethoxy-phenyl]-3H-isobenzofuran-1-one] cannot be ordered by pIC50: over 7.00 for the first, over 7.00 for the second.

`COc1ccc(-c2ccc3c(c2)COC3=O)c(OCc2cccc(S(N)(=O)=O)c2)c1OC` [Compound 144, 3-[2,3-Dimethoxy-6-(1-oxo-1,3-dihydro-isobenzofuran-5-yl)-phenoxymethyl]-benzenesulfonamide] and `COc1ccc(-c2ccc3c(c2)COC3=O)c(OCc2cccc(S(=O)(=O)N(C)C)c2)c1OC` [Compound 145, 3-[2,3-Dimethoxy-6-(1-oxo-1,3-dihydro-isobenzofuran-5-yl)-phenoxymethyl]-N,N-dimethyl-benzenesulfonamide] cannot be ordered by pIC50: over 7.00 for the first, over 7.00 for the second.

Compared with `COc1ccc(-c2ccc3c(c2)COC3=O)c(OCc2cccc(C(N)=O)c2)c1OC` [Compound 146, 3-[2,3-Dimethoxy-6-(1-oxo-1,3-dihydro-isobenzofuran-5-yl)-phenoxymethyl]-benzamide], `COc1ccc(-c2ccc3c(c2)CNC3=O)c(OCc2cccc(C(N)=O)c2)c1OC` [Compound 159, 3-[2,3-Dimethoxy-6-(1-oxo-2,3-dihydro-1H-isoindol-5-yl)-phenoxymethyl]-benzamide] is lower in pIC50: over 7.00 for the first, 6.30 to 7.00 for the second.

`COc1ccc(-c2ccc3c(c2)CNC3=O)c(OCCC(C)C)c1OC` [Compound 147, 5-[3,4-Dimethoxy-2-(3-methyl-butoxy)-phenyl]-2,3-dihydro-isoindol-1-one] and `COc1ccc(-c2ccc3c(c2)CNC3=O)c(OCCC(C)(C)C)c1OC` [Compound 152, 5-[2-(3,3-Dimethyl-butoxy)-3,4-dimethoxy-phenyl]-2,3-dihydro-isoindol-1-one] cannot be ordered by pIC50: over 7.00 for the first, over 7.00 for the second.

`COc1ccc(-c2ccc3c(c2)CNC3=O)c(OCC(C)(C)C)c1OC` [Compound 148, 5-[2-(2,2-Dimethyl-propoxy)-3,4-dimethoxy-phenyl]-2,3-dihydro-isoindol-1-one] and `COc1ccc(-c2ccc3c(c2)CNC3=O)c(OCC(C)(C)CO)c1OC` [Compound 154, 5-[2-(3-Hydroxy-2,2-dimethyl-propoxy)-3,4-dimethoxy-phenyl]-2,3-dihydro-isoindol-1-one] cannot be ordered by pIC50: over 7.00 for the first, over 7.00 for the second.

First: COc1ccc(-c2ccc3c(c2)CNC3=O)c(OCC2CCC2)c1OC [Compound 149, 5-(2-Cyclobutylmethoxy-3,4-dimethoxy-phenyl)-2,3-dihydro-isoindol-1-one]
Second: COc1ccc(-c2ccc3c(c2)CNC3=O)c(OCC2(CO)COC2)c1OC [Compound 151, 5-[2-(3-Hydroxymethyl-oxetan-3-ylmethoxy)-3,4-dimethoxy-phenyl]-2,3-dihydro-isoindol-1-one]
The pIC50 of the first is higher: over 7.00 for the first, 6.30 to 7.00 for the second. The first is the more potent here.

`COc1ccc(-c2ccc3c(c2)CNC3=O)c(OCc2ccc(S(C)(=O)=O)cc2)c1OC` [Compound 150, 5-[2-(4-Methanesulfonyl-benzyloxy)-3,4-dimethoxy-phenyl]-2,3-dihydro-isoindol-1-one] and `COc1ccc(-c2ccc3c(c2)CNC3=O)c(OCc2ccc(S(N)(=O)=O)cc2)c1OC` [Compound 161, 4-[2,3-Dimethoxy-6-(1-oxo-2,3-dihydro-1H-isoindol-5-yl)-phenoxymethyl]-benzenesulfonamide] cannot be ordered by pIC50: over 7.00 for the first, over 7.00 for the second.

`COc1ccc(-c2ccc3c(c2)CNC3=O)c(OCc2ccc(C(N)=O)cc2)c1OC` [Compound 153, 4-[2,3-Dimethoxy-6-(1-oxo-2,3-dihydro-1H-isoindol-5-yl)-phenoxymethyl]-benzamide] and `CNC(=O)c1ccc(COc2c(-c3ccc4c(c3)CNC4=O)ccc(OC)c2OC)cc1` [Compound 155, 4-[2,3-Dimethoxy-6-(1-oxo-2,3-dihydro-1H-isoindol-5-yl)-phenoxymethyl]-N-methyl-benzamide] cannot be ordered by pIC50: over 7.00 for the first, over 7.00 for the second.

`COc1ccc(-c2ccc3c(c2)CNC3=O)c(OCc2ccc(C(=O)N(C)C)cc2)c1OC` [Compound 156, 4-[2,3-Dimethoxy-6-(1-oxo-2,3-dihydro-1H-isoindol-5-yl)-phenoxymethyl]-N,N-dimethyl-benzamide] and `COc1ccc(-c2ccc3c(c2)CNC3=O)c(OCc2cccc(C(=O)N(C)C)c2)c1OC` [Compound 157, 3-[2,3-Dimethoxy-6-(1-oxo-2,3-dihydro-1H-isoindol-5-yl)-phenoxymethyl]-N,N-dimethyl-benzamide] cannot be ordered by pIC50: over 7.00 for the first, over 7.00 for the second.

`COc1ccc(-c2ccc3c(c2)CNC3=O)c(OCc2cccc(S(N)(=O)=O)c2)c1OC` [Compound 158, 3-[2,3-Dimethoxy-6-(1-oxo-2,3-dihydro-1H-isoindol-5-yl)-phenoxymethyl]-benzenesulfonamide] and `COc1ccc(-c2ccc3c(c2)CNC3=O)c(OCc2cccc(S(C)(=O)=O)c2)c1OC` [Compound 160, 5-[2-(3-Methanesulfonyl-benzyloxy)-3,4-dimethoxy-phenyl]-2,3-dihydro-isoindol-1-one] cannot be ordered by pIC50: over 7.00 for the first, over 7.00 for the second.

`COC(=O)C(C)(C)COc1c(-c2cccc3c2CCC3=O)ccc(OC)c1OC` [Compound 162, 3-[2,3-Dimethoxy-6-(1-oxo-indan-4-yl)-phenoxy]-2,2-dimethyl-propionic acid methyl ester] and `COC(=O)C(C)(C)COc1c(-c2ccc3c(c2)CCC3=O)ccc(OC)c1OC` [Compound 165, 3-[2,3-Dimethoxy-6-(1-oxo-indan-5-yl)-phenoxy]-2,2-dimethyl-propionic acid methyl ester] cannot be ordered by pIC50: over 7.00 for the first, over 7.00 for the second.

First: COc1ccc(-c2cccc3c2CCC3=O)c(OCC2(C)COC2)c1OC [Compound 163, 4-[3,4-Dimethoxy-2-(3-methyl-oxetan-3-ylmethoxy)-phenyl]-indan-1-one]
Second: COc1ccc(-c2cccc3c2COC3=O)c(OCC2(C)COC2)c1OC [Compound 164, 4-[3,4-Dimethoxy-2-(3-methyl-oxetan-3-ylmethoxy)-phenyl]-3H-isobenzofuran-1-one]
The pIC50 of the first is higher: over 7.00 for the first, 6.30 to 7.00 for the second.

`COc1ccc(-c2cccc3c2CCC3=O)c(OCC(C)C)c1OC` [Compound 166, 4-(2-Isobutoxy-3,4-dimethoxy-phenyl)-indan-1-one] and `COc1ccc(-c2ccc3c(c2)CCC3=O)c(OCC(C)C)c1OC` [Compound 169, 5-(2-Isobutoxy-3,4-dimethoxy-phenyl)-indan-1-one] cannot be ordered by pIC50: over 7.00 for the first, over 7.00 for the second.

`COc1ccc(-c2cc(OC)c(OC)c3c2CCC3=O)c(OCC(C)C)c1OC` [Compound 167, 4-(2-Isobutoxy-3,4-dimethoxy-phenyl)-6,7-dimethoxy-indan-1-one] and `COc1ccc(-c2ccc(OC)c3c2CCC3=O)c(OCC(C)C)c1OC` [Compound 168, 4-(2-Isobutoxy-3,4-dimethoxy-phenyl)-7-methoxy-indan-1-one] cannot be ordered by pIC50: 6.30 to 7.00 for the first, at most 6.30 for the second.

Compared with `COc1ccc(-c2ccc3c(c2)COC3=O)c(OCC(C)C)c1OC` [Compound 170, 5-(2-Isobutoxy-3,4-dimethoxy-phenyl)-3H-isobenzofuran-1-one], `COc1ccc(-c2ccc3c(c2)C(C)N(C)C3=O)c(OCC(C)C)c1OC` (stereo not drawn) [Compound 171, 5-(2-Isobutoxy-3,4-dimethoxy-phenyl)-2,3-dimethyl-2,3-dihydro-isoindol-1-one] is lower in pIC50: over 7.00 for the first, at most 6.30 for the second.
